Results taken from patent US10072252B2 (priority 2013, dated 2018).
Substitutions are numbered along the chain they refer to. In names and notes the source's numbering stands. Several values for one entry are separate records, joined by “and”; a condition that tells them apart may be missing. Equal values may be shown once. Read-outs that look alike come from different tables or passages of the source.

Assays:
[1] = molecular target: T1, Sulfolobus solfataricus SsoPox variant W263M, SEQ ID NO: 9 (Saccharolobus solfataricus, UniProt Q97VT7, W263M); type: biochemical
T1 construct: made in house; host or cells: E. coli BL21(DE3)-pGro7/GroEL

[2] = molecular target: T2, Sulfolobus solfataricus SsoPox variant W263A, SEQ ID NO: 13 (Saccharolobus solfataricus, UniProt Q97VT7, W263A)
[3] = molecular target: T3, Sulfolobus solfataricus SsoPox variant W263F (of SEQ ID NO: 3) (Saccharolobus solfataricus, UniProt Q97VT7, W263F)
[4] = molecular target: T4, Sulfolobus solfataricus SsoPox variant W263V, SEQ ID NO: 17 (Saccharolobus solfataricus, UniProt Q97VT7, W263V)
[5] = molecular target: T5, Sulfolobus solfataricus SsoPox variant W263L, SEQ ID NO: 11 (Saccharolobus solfataricus, UniProt Q97VT7, W263L); type: biochemical
T5 construct: made in house; host or cells: E. coli BL21(DE3)-pGro7/GroEL

[6] = molecular target: T6, Sulfolobus solfataricus SsoPox variant W263T, SEQ ID NO: 19 (Saccharolobus solfataricus, UniProt Q97VT7, W263T)
[7] = molecular target: T7, Sulfolobus solfataricus SsoPox variant W263I, SEQ ID NO: 15 (Saccharolobus solfataricus, UniProt Q97VT7, W263I)
[8] = molecular target: T8, Sulfolobus solfataricus SsoPox, wild type (wt), SEQ ID NO: 3 (Saccharolobus solfataricus, UniProt Q97VT7)
[9] = molecular target: T2, Sulfolobus solfataricus SsoPox variant W263A, SEQ ID NO: 13; type: biochemical; parameters: made in house; host or cells: E. coli BL21(DE3)-pGro7/GroEL
[10] = molecular target: T8, Sulfolobus solfataricus SsoPox, wild type (wt), SEQ ID NO: 3; parameters: made in house; host or cells: E. coli BL21(DE3)-pGro7/GroEL; details: cited from earlier work
[11] = molecular target: T8, Sulfolobus solfataricus SsoPox, wild type (wt), SEQ ID NO: 3; type: biochemical; parameters: made in house; host or cells: E. coli BL21(DE3)-pGro7/GroEL
[12] = molecular target: T7, Sulfolobus solfataricus SsoPox variant W263I, SEQ ID NO: 15; type: biochemical; parameters: made in house; host or cells: E. coli BL21(DE3)-pGro7/GroEL
[13] = molecular target: T4, Sulfolobus solfataricus SsoPox variant W263V, SEQ ID NO: 17; type: biochemical; parameters: made in house; host or cells: E. coli BL21(DE3)-pGro7/GroEL
[14] = molecular target: T5, Sulfolobus solfataricus SsoPox variant W263L, SEQ ID NO: 11; type: biochemical; remark: listed apart in the source
[15] = molecular target: T1, Sulfolobus solfataricus SsoPox variant W263M, SEQ ID NO: 9; type: biochemical; remark: listed apart in the source
[16] = molecular target: T9, Sulfolobus solfataricus SsoPox variant αsA1 (C258L/I261F/W263A), SEQ ID NO: 21 (Saccharolobus solfataricus, UniProt Q97VT7, C258L/I261F/W263A); type: biochemical; details: pH 8
T9 construct: made in house; host or cells: E. coli BL21(DE3)-pGro7/GroEL
T9 sequence (Q97VT7 1-314 C258L/I261F/W263A): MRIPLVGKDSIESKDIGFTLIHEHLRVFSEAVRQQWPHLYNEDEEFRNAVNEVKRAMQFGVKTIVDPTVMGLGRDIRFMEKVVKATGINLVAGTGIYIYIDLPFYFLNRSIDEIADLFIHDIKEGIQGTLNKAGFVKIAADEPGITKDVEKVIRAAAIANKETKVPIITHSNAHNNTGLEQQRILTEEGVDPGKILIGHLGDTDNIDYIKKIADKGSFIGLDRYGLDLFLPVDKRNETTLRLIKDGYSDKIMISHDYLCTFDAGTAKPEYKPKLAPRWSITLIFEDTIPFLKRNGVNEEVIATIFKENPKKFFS

[17] = molecular target: T3, Sulfolobus solfataricus SsoPox variant W263F (of SEQ ID NO: 3); type: biochemical; parameters: made in house; host or cells: E. coli BL21(DE3)-pGro7/GroEL
[18] = molecular target: T6, Sulfolobus solfataricus SsoPox variant W263T, SEQ ID NO: 19; type: biochemical; parameters: made in house; host or cells: E. coli BL21(DE3)-pGro7/GroEL
[19] = tested on: 3-oxo-C12 AHL; type: cell-based, Pseudomonas aeruginosa
[20] = tested on: P. aeruginosa PAO1 biofilm formation; type: cell-based
[21] = tested on: lasB transcription; type: cell-based, P. aeruginosa
[22] = type: physicochemical; details: pH 8
[23] = rat, in vivo
[24] = tested on: P. aeruginosa PAO1; details: in vivo
[25] = tested on: sea urchins larvae (Paracentrotus lividus); details: in vivo

Molecule: CCCCCCCCCC(=O)CC(=O)N[C@H]1CCOC1=O [3-oxo-C12 AHL]
- Enhancement/wt [1]: 0
- ability to hydrolyse [1]: lost the ability to hydrolyse
- Enhancement/wt [2]: 0.42
- ability to hydrolyse [2]: lost the ability to hydrolyse
- Enhancement/wt [3]: 1.5 and 1.3 ± 0.5
- kcat ([3]; pH 8.3): 0.41 ± 0.02 s⁻¹
- kcat/KM ([3]; pH 8.3): 2.81(±0.65) × 10^3 M^−1s^−1
- Enhancement/wt [4]: 65.8 and 54.5 ± 20.4
- kcat ([4]; pH 8.3): 3.00 ± 0.07 s⁻¹
- kcat/KM ([4]; pH 8.3): 1.21(±0.26) × 10^5 M^−1s^−1
- Enhancement/wt [5]: 0
- ability to hydrolyse [5]: lost the ability to hydrolyse
- Enhancement/wt [6]: 25.6 and 21.2 ± 7.2
- kcat ([6]; pH 8.3): 6.44 ± 0.22 s⁻¹
- kcat/KM ([6]; pH 8.3): 4.70(±0.67) × 10^4 M^−1s^−1
- Enhancement/wt [7]: 54.7 and 45.5 ± 18.8
- kcat ([7]; pH 8.3): 1.80 ± 0.05 s⁻¹
- Enhancement/wt [8]: 1
- kcat/KM [8]: 2.96(±0.99)×10^3 M^−1s^−1

Molecule: CCOP(=O)(OCC)Oc1ccc([N+](=O)[O-])cc1 [Paraoxon, paraoxon]
- Enhancement/wt [9]: 6.8
- Km ([9]; pH 8): 1490 ± 351 µM
- kcat ([9]; pH 8): 5.29 ± 0.69 s⁻¹
- kcat/KM ([9]; pH 8): 3.55(±1.30)×10^3 M^−1s^−1
- kcat/KM [10]: 6.41(±1.51)×10^3 M^−1s^−1
- Catalytic activity ([10]; pH 8): 5.19(±1.31) · 10^2 M^−1s^−1
- Km ([10]; pH 8): 24300 ± 3720 µM
- kcat ([10]; pH 8): 12.59 ± 1.26 s⁻¹
- kcat/KM ([10]; pH 8): 5.19(±1.31) × 10^2 M^−1s^−1
- Enhancement/wt [11]: 1
- catalytic efficiency improvement induced by SDS [11]: 12.4 times
- Enhancement/wt [12]: 2.3
- kcat/KM ([12]; pH 8): 1.21(±0.59) × 10^3 M^−1s^−1
- Enhancement/wt [13]: 1.7
- kcat/KM ([13]; pH 8): 8.83(±0.3) × 10^2 M^−1s^−1
- Enhancement/wt [14]: 4.6
- catalytic efficiency improvement induced by SDS [14]: 19.8 times
- kcat [14]: 3.17 ± 0.18 s⁻¹ and 3.13 ± 0.25 s⁻¹
- kcat/KM ([14]; pH 8): 2.37(±0.33) × 10^3 M^−1s^−1
- Enhancement/wt [15]: 14.1
- Km ([15]; pH 8): 931 ± 163 µM
- kcat ([15]; pH 8): 6.82 ± 0.57 s⁻¹
- kcat/KM ([15]; pH 8): 7.33(±1.9) × 10^3 M^−1s^−1
- Catalytic activity [16]: 3.37(±0.94) · 10^4 M^−1s^−1
- Enhancement/wt [17]: 23.3
- Km ([17]; pH 8): 700 ± 146 µM
- kcat ([17]; pH 8): 8.47 ± 0.53 s⁻¹
- kcat/KM ([17]; pH 8): 1.21(±0.33)×10^4 M^−1s^−1
- Enhancement/wt [18]: 2.0
- kcat/KM ([18]; pH 8): 1.06(±0.03) × 10^3 M^−1s^−1

B1: SsoPox W263I: SEQ ID NO: 3 with substitution of tryptophan W in position 263 by isoleucine I (protein, listed as Sulfolobus solfataricus)
chain: T9 sequence (Q97VT7 1-314 C258L/I261F/W263A) with L258C, F261I, A263I
- relative lactonase activity in screening (3-oxo-C12 AHL hydrolysis) [19]: selected for a potential lactonase activity improvement
- [C1/2] of inhibition of biofilm formation [20]: approximately 170 μg/mL
- half inhibition concentration ([C1/2]) of lasB transcription [21]: around 0.5 μg/mL
- melting temperature [22]: 87.8±1.2 °C
- acute inflammatory reactions in the respiratory parenchyma [23]: no observable acute inflammatory reactions
- histological analysis of lungs [23]: normal lung parenchyma
- macroscopic aspect of lungs removed after treatment [23]: no macroscopic signs of injury
- spontaneous mortality [23]: no spontaneous mortality was observed
- tolerance of tracheal instillation [23]: well tolerated
- mean time to death [24]: 37 ± 13 h
- mortality rate [24]: 20%

B2: SsoPox: SsoPox enzyme tested for ecotoxicity; variant not specified (protein, UniProt Q97VT7 1-314, looked up)
Aryldialkylphosphatase: T9 sequence (Q97VT7 1-314 C258L/I261F/W263A) with L258C, F261I, A263W
- effects on viability and development [25]: no effects have been observed
